Measured values: ChEMBL document CHEMBL4138160, “Biphenylthiazole antibiotics with an oxadiazole linker: An approach to improve physicochemical properties and oral bioavailability” (Eur J Med Chem, 2018)
≈ marks a conversion by molar mass, not a printed value. Calls of active or inactive are those of the source. The calls are words filed in the database; no cut-off is given here.

What was measured:
Staphylococcus aureus [1] = assay: Antibacterial activity against methicillin-resistant Staphylococcus aureus 2658 RCMB after 20 hrs by broth microdilution method; format: functional
[2] = Aqueous solubility in PBS after 2 hrs; format: physicochemical; conditions: buffer
HRT-18 cell line = assay: Cytotoxicity against human HRT18 cells assessed as decrease in cell viability up to 256 ug/ml after 2 hrs by MTS assay; format: cell-based; conditions: hrt-18, 2 h
Staphylococcus aureus [3] = assay: Antibacterial activity against methicillin-resistant Staphylococcus aureus USA300 NRS384 at sub MIC after 14 passages over 2 weeks by broth microdilution method; format: functional, organism-based
Staphylococcus aureus [4] = assay: Antibacterial activity against methicillin-resistant Staphylococcus aureus USA300 NRS384 by broth microdilution method
Staphylococcus aureus [5] = assay: Antibacterial activity against methicillin-resistant Staphylococcus aureus USA300 NRS384 at sub MIC after 4 passages by broth microdilution method
Staphylococcus aureus [6] = assay: Antibacterial activity against Staphylococcus aureus VRS11a clinical isolate after 20 hrs by broth microdilution method; format: functional
Enterococcus faecium = assay: Antibacterial activity against vancomycin-resistant Enterococcus faecium ATCC 700221 after 20 hrs by broth microdilution method; format: functional; conditions: ATCC 700221, 20 h
Staphylococcus aureus [7] = assay: Antibacterial activity against Staphylococcus aureus VRS12 clinical isolate after 20 hrs by broth microdilution method; format: functional; conditions: VRS12, 20 h

Compound	MIC (Staphylococcus aureus [1])	solubility [2]	other results
CCNc1nnc(-c2sc(-c3ccc(-c4ccccc4)cc3)nc2C)o1	> 25 µg/mL	–	–
Cc1nc(-c2ccc(-c3ccccc3)cc2)sc1-c1nnc(NC(=N)c2ccccn2)o1	> 25 µg/mL	–	–
C/C(=N\NC(=N)N)c1sc(-c2ccc(-c3ccccc3)cc2)nc1C	2.75 µg/mL (≈ 7.87 µM)	2.7 µM (≈ 0.944 µg/mL)	–
Cc1nc(-c2ccc(-c3ccccc3)cc2)sc1-c1ccnc(NC(=N)N)n1	–	2.2 µM (≈ 0.85 µg/mL)	–
CNc1nnc(-c2sc(-c3ccc(-c4ccccc4)cc3)nc2C)o1	12.5 µg/mL (≈ 35.9 µM)	–	–
Cc1nc(-c2ccc(-c3ccccc3)cc2)sc1-c1nnc(NC(=N)N2CCOCC2)o1	1.56 µg/mL (≈ 3.49 µM)	–	Activity (HRT-18 cell line): Non-Toxic; Activity (Staphylococcus aureus [3]): Active
Cc1nc(-c2ccc(-c3ccccc3)cc2)sc1-c1nnc(N2CCCC2)o1	> 25 µg/mL	–	–
CO[C@H]1/C=C/O[C@@]2(C)Oc3c(C)c(O)c4c(O)c(c(/C=N/N5CCN(C)CC5)c(O)c4c3C2=O)NC(=O)/C(C)=C\C=C\[C@H](C)[C@H](O)[C@@H](C)[C@@H](O)[C@@H](C)[C@H](OC(C)=O)[C@@H]1C [RIFAMPIN]	–	–	MIC (Staphylococcus aureus [4]): 0.006 µg/mL (≈ 0.00729 µM); MIC (Staphylococcus aureus [5]): 1.6 µg/mL (≈ 1.94 µM)
Cc1nc(-c2ccc(-c3ccccc3)cc2)sc1-c1nnc(NC(C)C)o1	> 25 µg/mL	–	–
CCCNc1nnc(-c2sc(-c3ccc(-c4ccccc4)cc3)nc2C)o1	> 25 µg/mL	–	–
Cc1nc(-c2ccc(-c3ccccc3)cc2)sc1-c1nnc(N2CCN(C)CC2)o1	1.56 µg/mL (≈ 3.74 µM)	45 µM (≈ 18.8 µg/mL)	–
Cc1nc(-c2ccc(-c3ccccc3)cc2)sc1-c1nnc(NC2CCCC2)o1	> 25 µg/mL	–	–
CNC(=N)Nc1nnc(-c2sc(-c3ccc(-c4ccccc4)cc3)nc2C)o1	1.56 µg/mL (≈ 4 µM)	89 µM (≈ 34.8 µg/mL)	–
CN[C@H](CC(C)C)C(=O)N[C@H]1C(=O)N[C@@H](CC(N)=O)C(=O)N[C@H]2C(=O)N[C@H]3C(=O)N[C@H](C(=O)N[C@H](C(=O)O)c4cc(O)cc(O)c4-c4cc3ccc4O)[C@H](O)c3ccc(c(Cl)c3)Oc3cc2cc(c3O[C@@H]2O[C@H](CO)[C@@H](O)[C@H](O)[C@H]2O[C@H]2C[C@](C)(N)[C@H](O)[C@H](C)O2)Oc2ccc(cc2Cl)[C@H]1O [VANCOMYCIN]	1.56 µg/mL (≈ 1.08 µM)	–	MIC (Staphylococcus aureus [6]): > 512 µg/mL; MIC (Enterococcus faecium): > 64 µg/mL; MIC (Staphylococcus aureus [7]): > 512 µg/mL
Cc1nc(-c2ccc(-c3ccccc3)cc2)sc1-c1nnc(NC(=N)c2ccncc2)o1	> 25 µg/mL	–	–
Cc1nc(-c2ccc(-c3ccccc3)cc2)sc1-c1nnc(NN)o1	3.12 µg/mL (≈ 8.93 µM)	77 µM (≈ 26.9 µg/mL)	–
